# Read-outs that look alike come from different tables or passages of the source.
# Columns and labels:
# clinical = settings: human, in vivo
# Source text: Dexmedetomidine plasma concentration-time data from clinical study # REC-10-006 were used in predicting the steady-state concentration-time profiles resulting from once-daily (QD) and twice-daily (BID) topical application of a 0.25, 0.5, and 1-gram dose. The data from the following 3 subjects were used: 1001, 1004, and 1005. The three subjects participated in the following treatment arms: Treatment A (0.25-gram dose), Treatment C (0.5-gram dose), and Treatment E (1.0-gram dose). Clinical study # REC-10-006 was a single ascending-dose study with multiple treatment arms (Treatments A, B, C, D and E). Plasma samples for drug analysis were taken at pre-dose (0 hour) and at the following specified times after dosing: 0.5, 1, 1.5, 2, 3, 4, 6, 8, 10, 12, 18, 24, 30, 36, and 48 hours. The lower limit of quantification of the bioanalytical assay was 0.02 ng/mL.
# All pharmacokinetic parameters were analyzed using compartmental analysis. Dexmedetomidine plasma concentration-time data from Period 1 (REC-10-006) were used in predicting the steady-state concentration-time profiles resulting from once-daily (QD) and twice-daily (BID) topical application of 0.25-, 0.5- and 1.0-gram doses. The data used were from three subjects (Identifiers 1001, 1004, and 1005) who participated in treatment arms A (0.25-gram dose), C (0.5-gram dose), and E (1.0-gram dose). Blood samples for drug analysis were taken at pre-dose and at the following specified times after dosing: 0.25, 0.5, 0.75, 1, 1.5, 2, 2.5, 3, 4, 5, 6, 7, 8, 12, 24, 48, and 72 hours. […] Once the PK parameters were calculated and the single-dose concentrations were generated, the data were imported into WinNonlin™, Version 5.2 (WinNonlin™ Copyright ©2008, Pharsight Corporation), a nonparametric superposition was carried out to predicted the steady-state plasma concentration-time profiles resulting from QD and BID dosing.
# As stated previously, the PK parameters were calculated using nonlinear-mixed-effect model using the software MonoLix 3.1. […]
# [1] = humans, cited from earlier work
# [2] = human subjects, buccal administration; cited from earlier work
# α2-aderenoceptor = settings: selective α2-adrenoceptor agonist; cited from earlier work
smiles,measurement,setting,value
"Cc1cccc([C@H](C)c2cnc[nH]2)c1C [dexmedetomidine, 5-[(1S)-1-(2,3-dimethylphenyl)ethyl]-1H-imidazole]",period of absorption at a constant rate,clinical,~20 h
same,portion of the plasma concentrations below the quantifiable level of 0.02 ng/mL,clinical,67%
same,half-life,clinical; topical or ocular,~15 h
same,time to maximum concentration in blood,[1]; i.m. administration,1.6 to 1.7 h
same,time to maximum concentration in blood,[1]; transdermal administration,6 h
same,time of maximum concentration,[2],approximately 1.5 h
same,selectivity relative to that of clonidine,α2-aderenoceptor,approximately 10 fold

# From patent US20130072532A1, “TOPICAL TRANSDERMAL DEXMEDETOMIDINE COMPOSITIONS AND METHODS OF USE THEREOF” (priority 2010, published 2013)
